The subject of this assay is tandem Na+ and c-di-AMP riboswitch (DUF1646_cdA_WT transcript) (RNA, riboswitch) AUUUAUAAGGUUACUUUCGGUUGGAAUGGUUAUUACCAUUUUCAAGAGAAGCGGGCUCUGGGGUGGGAGGCUACCAAAUAUUGGUAUAGCUAUCCACCUUUAUUUAUUUUUUUUAAGACAACAACUGAAUAUAUUUAUACGCUGAAUCCGUUAGGAACGGGAGACCCAAAUAAUAGGGGUGAAUCCAAAGCGGUUGCUUUGGUAGGGUUAAGCUCUUUCGACCCGAAUCCGUCAGCUAAUCUCGUAAGCGGUGGAAGAGAAGGUGAUUGAUAUGCUUAAUUACACCUUUAGUUAAGGUAUAUAUUUUAGCAUACGCUGCAGAUACUUCUCUGCAGCUUUUUGUUUUAUAUACCACAAAUGUUGAGGAUGACAAUCUUCAAUGAGAAUCUGAAGGAGGAAUUAAAUAAUAUGGGAUCCAAAGGA
Nature of the assay: in vitro single-round transcription termination. As to conditions: K+ 100 mM, Mg2+ 4 mM; 40 mM Tris-HCl pH 7.5, 37 °C; E. coli RNA polymerase; functional co-transcriptional response, no constant.

With `Nc1ncnc2c1ncn2[C@@H]1O[C@@H]2COP(=O)(O)O[C@H]3[C@@H](O)[C@H](n4cnc5c(N)ncnc54)O[C@@H]3COP(=O)(O)O[C@H]2[C@H]1O`, the binding result is on record as “yes”.

For the origin of these results see article PMC9337991 (2022).
